From patent US8604016B2, “Heterocyclic inhibitors of glutaminase” (Calithera Biosciences Inc., priority 2011, dated 2013)

Target: recombinant form of Glutaminase 1 (GAC) (Homo sapiens, UniProt O94925)
Test: Recombinant Enzyme Assay (GAC coupled to GDH, NADH absorbance, no preincubation)
Format: biochemical
Settings: no preincubation; read-out: GAC Delta N2 IC50 no preinc
Protocol: Enzymatic reaction was started with the addition of 50 μL of enzyme solution (50 mM Tris-HCl pH 8.0, 0.2 mM EDTA, 150 mM K2HPO4, 0.1 mg/ml BSA, 1 mM DTT, 10 ppm antifoam, 4 units/ml GDH, 4 mM adenosine diphosphate, and 4 nM GAC) and read in a Molecular Devices M5 plate reader at 20° C. The plate reader was configured to read absorbance (λ=340 nm) in kinetic mode for 15 minutes. Data was recorded as milli-absorbance units per minute and slopes were compared to a control compound and a DMSO-only control on the same plate. Compounds with slopes less than the DMSO control were considered inhibitors and plate variability was assessed using the control compound.

| Compound | IC50 [µM] |
| --- | --- |
| COc1ccc(C(=O)Nc2nnc(CCSCCc3nnc(NC(=O)c4ccc(OC)cc4)s3)s2)cc1 [Compound 3] | > 50 |
| CC(C)CC(=O)Nc1nnc(CCSCCc2nnc(NC(=O)CC(C)C)s2)s1 [Compound 4] | 13 |
| CC(=O)OCC(=O)Nc1nnc(CCSCCc2nnc(NC(=O)COC(C)=O)s2)s1 [Compound 5] | > 50 |
| CN(C(=O)Cc1ccccc1)c1nnc(CCSCCc2nnc(N(C)C(=O)Cc3ccccc3)s2)s1 [Compound 6] | > 50 |
| CCCC(=O)OCN(C(=O)Cc1ccccc1)c1nnc(CCSCCc2nnc(NC(=O)Cc3ccccc3)s2)s1 [Compound 7] | > 50 |
| CCCC(=O)OCN(C(=O)Cc1ccccc1)c1nnc(CCSCCc2nnc(N(COC(=O)CCC)C(=O)Cc3ccccc3)s2)s1 [Compound 8] | > 50 |
| CC(CCc1nnc(NC(=O)Cc2ccccc2)s1)CCc1nnc(NC(=O)Cc2ccccc2)s1 [Compound 9] | > 50 |
| CC(C)(CCc1nnc(NC(=O)Cc2ccccc2)s1)CCc1nnc(NC(=O)Cc2ccccc2)s1 [Compound 10] | > 50 |
| O=C(CN1CCOCC1)Nc1nnc(CCSCCc2nnc(NC(=O)CN3CCOCC3)s2)s1 [Compound 12] | > 50 |
| CC(=O)OCC(C(=O)Nc1nnc(CCSCCc2nnc(NC(=O)C(COC(C)=O)c3ccccc3)s2)s1)c1ccccc1 (centres unmarked) [Compound 14] | 2.8 |
| CC(C)(C)C(=O)OCN(C(=O)Cc1ccccc1)c1nnc(CCSCCc2nnc(NC(=O)Cc3ccccc3)s2)s1 [Compound 15] | > 50 |
| CC(C)(C)C(=O)OCN(C(=O)Cc1ccccc1)c1nnc(CCSCCc2nnc(N(COC(=O)C(C)(C)C)C(=O)Cc3ccccc3)s2)s1 [Compound 16] | > 50 |
| C=CCCC(=O)Nc1nnc(CCSCCc2nnc(NC(=O)CCC=C)s2)s1 [Compound 18] | 4.5 |
| CC(C(=O)Nc1nnc(CCSCCc2nnc(NC(=O)C(C)c3ccccc3)s2)s1)c1ccccc1 (centres unmarked) [Compound 19] | 11 |
| CC(C(=O)Nc1nnc(CCSCCc2nnc(N)s2)s1)c1ccccc1 (centres unmarked) [Compound 20] | 6.6 |
| O=C(Nc1nnc(CCSCCc2nnc(NC(=O)[C@@H]3CCCN3C(=O)C(F)(F)F)s2)s1)[C@@H]1CCCN1C(=O)C(F)(F)F [Compound 22] | > 50 |
| Nc1nnc(CCSCCc2nnc(NC(=O)[C@@H]3CCCN3C(=O)C(F)(F)F)s2)s1 [Compound 23] | > 50 |
| CC(=O)Nc1nnc(CCSCCc2nnc(NC(=O)Cc3ccccc3)s2)s1 [Compound 25] | 1.2 |
| O=C(Cc1ccccc1)Nc1nnc(CCSCCc2nnc(N(COC(=O)OCCCN3CCOCC3)C(=O)Cc3ccccc3)s2)s1 [Compound 27] | > 50 |
| O=C(OCCCN1CCOCC1)OCN(C(=O)Cc1ccccc1)c1nnc(CCSCCc2nnc(N(COC(=O)OCCCN3CCOCC3)C(=O)Cc3ccccc3)s2)s1 [Compound 28] | > 50 |
| O=C(Nc1nnc(CCCCCc2nnc(NC(=O)C(CO)c3ccccc3)s2)s1)C(CO)c1ccccc1 (centres unmarked) [Compound 30] | 1.2 |
| COC(=O)c1cccc(NC(=O)Nc2nnc(CCSCCc3nnc(NC(=O)Nc4cccc(C(=O)OC)c4)s3)s2)c1 [Compound 31] | > 50 |
| CC(C)[C@H](N)C(=O)Nc1nnc(CCSCCc2nnc(NC(=O)Cc3ccccc3)s2)s1 [Compound 32] | 7 |

| Compound | IC50 [µM] |
| --- | --- |
| CC(C)[C@H](NC(=O)OC(C)(C)C)C(=O)Nc1nnc(CCSCCc2nnc(NC(=O)Cc3ccccc3)s2)s1 [Compound 33] | 13 |
| CC(C)[C@H](NC(=O)OC(C)(C)C)C(=O)Nc1nnc(CCSCCc2nnc(NC(=O)[C@@H](NC(=O)OC(C)(C)C)C(C)C)s2)s1 [Compound 34] | > 50 |
| O=C(Cc1ccccc1)Nc1nnc(CCSCCc2nnc(NC(=O)[C@@H]3CCCN3C(=O)C(F)(F)F)s2)s1 [Compound 35] | 18 |
| O=C(Nc1nnc(CCSCCc2nnc(NC(=O)C3CCc4ccccc4C3)s2)s1)C1CCc2ccccc2C1 (centres unmarked) [Compound 37] | > 50 |
| O=C(Nc1nnc(CCSCCc2nnc(NC(=O)C3CC4CCC3C4)s2)s1)C1CC2CCC1C2 (centres unmarked) [Compound 38] | > 50 |
| O=C(Nc1nnc(CCSCCc2nnc(NC(=O)C3CCCO3)s2)s1)C1CCCO1 (centres unmarked) [Compound 39] | 26 |
| O=C(Nc1nnc(CCSCCc2nnc(NC(=O)C3CCCC3)s2)s1)C1CCCC1 [Compound 40] | 3.7 |
| O=C(Nc1nnc(CCSCCc2nnc(NC(=O)C3COc4ccccc4O3)s2)s1)C1COc2ccccc2O1 (centres unmarked) [Compound 41] | 7.9 |
| CC(C)[C@H](NC(=O)OC(C)(C)C)C(=O)Nc1nnc(CCCCc2nnc(NC(=O)[C@@H](NC(=O)OC(C)(C)C)C(C)C)s2)s1 [Compound 42] | > 50 |
| O=C(COc1ccccc1)Nc1nnc(CCCCc2nnc(NC(=O)COc3ccccc3)s2)s1 [Compound 43] | 2.3 |
| CC(CCc1nnc(NC(=O)Cc2ccccc2)s1)Cc1nnc(NC(=O)Cc2ccccc2)s1 (centres unmarked) [Compound 44] | 4.9 |
| O=C(Nc1nnc(CCCCc2nnc(NC(=O)C(F)(F)F)s2)s1)C(F)(F)F [Compound 45] | > 50 |
| CC(C)(C)OC(=O)N[C@@H](C(=O)Nc1nnc(CCSCCc2nnc(NC(=O)[C@H](NC(=O)OC(C)(C)C)c3ccccc3)s2)s1)c1ccccc1 [Compound 46] | > 50 |
| N[C@@H](C(=O)Nc1nnc(CCSCCc2nnc(NC(=O)[C@H](N)c3ccccc3)s2)s1)c1ccccc1 [Compound 47] | 8.3 |
| O=C(CC1CCCCC1)Nc1nnc(CCSCCc2nnc(NC(=O)CC3CCCCC3)s2)s1 [Compound 48] | > 50 |
| C[C@H](NC(=O)OC(C)(C)C)C(=O)Nc1nnc(CCSCCc2nnc(NC(=O)[C@H](C)NC(=O)OC(C)(C)C)s2)s1 [Compound 49] | 36 |
| O=C(Nc1nnc(CCSCCc2nnc(NC(=O)C3Cc4ccccc4O3)s2)s1)C1Cc2ccccc2O1 (centres unmarked) [Compound 50] | 2.5 |
| O=C(Nc1nnc(CCCCc2nnc(NC(=O)C3Cc4ccccc4O3)s2)s1)C1Cc2ccccc2O1 (centres unmarked) [Compound 51] | 1.2 |
| O=C(Nc1nnc(CCCCc2nnc(NC(=O)C3COc4ccccc4O3)s2)s1)C1COc2ccccc2O1 (centres unmarked) [Compound 52] | 8.3 |
| O=C(Nc1nnc(CCCCc2nnc(NC(=O)C3CCCC3)s2)s1)C1CCCC1 [Compound 53] | > 50 |
| O=C(Nc1nnc(CCCCc2nnc(NC(=O)C3CCCO3)s2)s1)C1CCCO1 (centres unmarked) [Compound 54] | 9.2 |
| O=C(Nc1nnc(CCCCc2nnc(NC(=O)C3CC4CCC3C4)s2)s1)C1CC2CCC1C2 (centres unmarked) [Compound 55] | > 50 |
| CC(O)(C(=O)Nc1nnc(CCSCCc2nnc(N)s2)s1)C(F)(F)F (centres unmarked) [Compound 56] | > 50 |

| Compound | IC50 [µM] |
| --- | --- |
| O=C(Cn1cccn1)Nc1nnc(CCSCCc2nnc(NC(=O)Cn3cccn3)s2)s1 [Compound 57] | 40 |
| O=C(CC1CCCC1)Nc1nnc(CCSCCc2nnc(NC(=O)CC3CCCC3)s2)s1 [Compound 58] | > 50 |
| O=C(Nc1nnc(CCSCCc2nnc(NC(=O)C3(C(F)(F)F)CC3)s2)s1)C1(C(F)(F)F)CC1 [Compound 59] | > 50 |
| O=C(Cn1cccn1)Nc1nnc(CCCCc2nnc(NC(=O)Cn3cccn3)s2)s1 [Compound 60] | 24 |
| O=C(CC1CCCC1)Nc1nnc(CCCCc2nnc(NC(=O)CC3CCCC3)s2)s1 [Compound 61] | > 50 |
| O=C(Nc1nnc(CCCCc2nnc(NC(=O)C3(C(F)(F)F)CC3)s2)s1)C1(C(F)(F)F)CC1 [Compound 62] | > 50 |
| CC(C)(C)OC(=O)N1CCN(C(C(=O)Nc2nnc(CCCCc3nnc(NC(=O)C(c4ccccc4)N4CCN(C(=O)OC(C)(C)C)CC4)s3)s2)c2ccccc2)CC1 (centres unmarked) [Compound 63] | 25 |
| O=C1CC(C(=O)Nc2nnc(CCCCc3nnc(NC(=O)C4CC(=O)c5ccccc54)s3)s2)c2ccccc21 (centres unmarked) [Compound 64] | 1.3 |
| COC(C(=O)Nc1nnc(CCCCc2nnc(NC(=O)C(OC)c3ccccc3)s2)s1)c1ccccc1 (centres unmarked) [Compound 65] | 1.3 |
| CC(=O)O[C@H](C(=O)Nc1nnc(CCCCc2nnc(NC(=O)[C@@H](OC(C)=O)c3ccccc3)s2)s1)c1ccccc1 [Compound 66] | 20 |
| COC(C(=O)Nc1nnc(CCSCCc2nnc(NC(=O)C(OC)c3ccccc3)s2)s1)c1ccccc1 (centres unmarked) [Compound 67] | 3 |
| O=CO[C@@H](C(=O)Nc1nnc(CCCCc2nnc(NC(=O)[C@H](OC=O)c3ccccc3)s2)s1)c1ccccc1 [Compound 68] | 4.9 |
| O=C(Nc1nnc(CCCCc2nnc(NC(=O)C(O)Cc3ccccc3)s2)s1)C(O)Cc1ccccc1 (centres unmarked) [Compound 69] | 0.69 |
| CC(C)(C)OC(=O)N1CCN(C(C(=O)Nc2nnc(CCSCCc3nnc(NC(=O)Cc4ccccc4)s3)s2)c2ccccc2)CC1 (centres unmarked) [Compound 70] | 3.4 |
| CC(=O)O[C@H](C(=O)Nc1nnc(CCSCCc2nnc(NC(=O)[C@@H](OC(C)=O)c3ccccc3)s2)s1)c1ccccc1 [Compound 71] | > 50 |
| CC(C)[C@H](N)C(=O)Nc1nnc(CCCCc2nnc(NC(=O)[C@@H](N)C(C)C)s2)s1 [Compound 73] | > 50 |
| C[C@H](N)C(=O)Nc1nnc(CCSCCc2nnc(NC(=O)[C@H](C)N)s2)s1 [Compound 74] | > 50 |
| O=C(CCc1ccccc1)Nc1nnc(CCSCCc2nnc(NC(=O)CCc3ccccc3)s2)s1 [Compound 75] | > 50 |
| CC(C)(C)OC(=O)N1CCN(C(C(=O)Nc2nnc(CCSCCc3nnc(NC(=O)C(c4ccccc4)N4CCN(C(=O)OC(C)(C)C)CC4)s3)s2)c2ccccc2)CC1 (centres unmarked) [Compound 76] | > 50 |
| O=C(Nc1nnc(CCCCc2nnc(NC(=O)C(c3ccccc3)N3CCNCC3)s2)s1)C(c1ccccc1)N1CCNCC1 (centres unmarked) [Compound 77] | 6.1 |
| O=C(Nc1nnc(CCCCc2nnc(NC(=O)[C@H](O)c3ccccc3)s2)s1)[C@H](O)c1ccccc1 [Compound 80] | 1.8 |

Same assay, conditions: read-out: GAC Delta N2 IC50 no preinc

| Compound | IC50 [µM] |
| --- | --- |
| O=C(Nc1nnc(CCSCCc2nnc(NC(=O)c3ccccc3)s2)s1)c1ccccc1 [Compound 2] | 4.1 |
